Where two headings read alike, the source gives them in different places. No end group written: not given here.

The results in this text go back to patent publication US20060079453A1, “Hla binding peptides and their uses” (priority 2002, published 2006).

One assay concerns the target HLA-A*2301 (Homo sapiens, UniProt P04439, D101N/D140Y/D185E/E176V/E190D/F33S/G103R/G107R/H175R/I119L/I121M/I306V/K168Q/K335N/L105A/L300P/N151K/N90K/P307H/Q86E/Q94H/R106L/R138H/R89G/T104I/T345S/V100E/W191G/Y123F). The assay is described as follows: biochemical. It counts as binding.
The target in a further assay is HLA-A*3002 (Homo sapiens, UniProt P04439, D101N/D140H/D185E/E176R/F33S/G80R/H175R/K168Q/Q94H/R138E/R41S/V100E). Nature of the assay: biochemical. It counts as binding.
The next assay concerns the target HLA-A*2902 (Homo sapiens, UniProt P04439, A270S/D101N/D185E/E176V/E277Q/E87Q/F33T/G231S/H175R/I121M/I218V/I322F/K168Q/L300P/L318F/M331R/P208A/P217A/Q86L/T323A/T345S/V100A/V358M). Nature of the assay: MHC molecular binding / Capture assay, IC50: A*2902.

Sequence of HLA-A*3002 (P04439 whole entry, looked up, the tested form may be a part, stated change not applied): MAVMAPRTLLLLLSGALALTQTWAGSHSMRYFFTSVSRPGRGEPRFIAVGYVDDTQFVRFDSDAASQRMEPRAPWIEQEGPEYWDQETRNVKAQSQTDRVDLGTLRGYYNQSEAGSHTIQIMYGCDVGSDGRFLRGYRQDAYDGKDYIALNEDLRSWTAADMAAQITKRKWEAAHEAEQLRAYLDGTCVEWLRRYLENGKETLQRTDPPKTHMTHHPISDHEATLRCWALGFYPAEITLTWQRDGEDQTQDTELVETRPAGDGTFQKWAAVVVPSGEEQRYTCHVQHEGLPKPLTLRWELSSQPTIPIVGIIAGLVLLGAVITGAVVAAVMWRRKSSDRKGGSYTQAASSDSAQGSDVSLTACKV

As a reminder, the IC50 is the point on the concentration scale where inhibition reaches its midpoint. Read a high IC50 as lower potency. TYSVSFDSLF: the values for the IC50 against HLA-A*2301 and at HLA-A*3002 (A*3002 binding affinity (IC50)) were 12 nM and 5220 nM, respectively.

In the case of `CC(C)C[C@H](NC(=O)[C@H](CC(C)C)NC(=O)[C@H](C)NC(=O)[C@H](CC(C)C)NC(=O)[C@H](CC(C)C)NC(=O)[C@H](CC(C)C)NC(=O)CNC(=O)[C@H](Cc1c[nH]c2ccccc12)NC(=O)[C@@H](N)CCCNC(=N)N)C(=O)O`, the IC50 against HLA-A*2301 stood at 100 nM; at HLA-A*2902, 61300 nM; against HLA-A*3002, 300 nM.

Consider MYVGGPGPGVF, for which the half-maximal inhibitory concentration (IC50) against HLA-A*2301 was 85 nM; on HLA-A*2902 (Binding affinity to A*2902 (expressed as an IC50)) it was 89 nM.

As to IYYFDGNSW, the IC50 amounted to 6.1 nM on HLA-A*2301, 3100 nM on HLA-A*2902 (A*2902 binding affinity (IC50)) and 3030 nM on HLA-A*3002 (A*3002 binding affinity (IC50)).

As to RYHNIRGRW, the IC50 was 14 nM against HLA-A*2301, 123000 nM at HLA-A*2902 and 15 nM at HLA-A*3002.

With VYHTQGYFPDF, the figures for the 50% inhibitory concentration (IC50) against HLA-A*2301 and at HLA-A*3002 were 68 nM and above 22600 nM, respectively.

As to IYPGPGPGIF, the IC50 at HLA-A*2301 is 12 nM; on HLA-A*2902 (A*2902 binding affinity (IC50)), 18700 nM; on HLA-A*3002 (A*3002 binding affinity (IC50)) it was 18000 nM.

Regarding KWSKSSIVGF, the IC50 against HLA-A*2301 is 84 nM; at HLA-A*2902, above 56200 nM; on HLA-A*3002, 30400 nM.

On to MYVGDLCGSVF, for which the figures for the IC50 against HLA-A*2301, at HLA-A*2902 (A*2902 binding affinity (IC50)) and at HLA-A*3002 (A*3002 binding affinity (IC50)) were 0.91 nM, 612 nM and 1460 nM, respectively.

LFLNTLSF: the half-inhibitory concentration (IC50) against HLA-A*2301 came to 104 nM; on HLA-A*2902 (A*2902 binding affinity (IC50)) it was 1010 nM; on HLA-A*3002 (A*3002 binding affinity (IC50)), 118000 nM.

AYIGPGPGF: the values for the IC50 at HLA-A*2301, on HLA-A*2902 (A*2902 binding affinity (IC50)) and on HLA-A*3002 (A*3002 binding affinity (IC50)) were 12 nM, 15900 nM and 5730 nM, respectively.

Consider QYNKPLCDLLI, for which the IC50 is 36 nM on HLA-A*2301, above 167000 nM at HLA-A*2902 (A*2902 binding affinity (IC50)) and 6680 nM on HLA-A*3002 (A*3002 binding affinity (IC50)).

With TYLPGPGPGSF, the results for the IC50 on HLA-A*2301 and on HLA-A*2902 (A*2902 binding affinity (IC50)) were 2.2 nM and 56200 nM, respectively.

Turning to TYGPGPGSLF, the IC50 on HLA-A*2301 is 8.7 nM; on HLA-A*2902 (A*2902 binding affinity (IC50)), 7230 nM.

For `CC(C)C[C@H](NC(=O)[C@@H](N)CCCNC(=N)N)C(=O)N[C@@H](C)C(=O)N[C@@H](Cc1c[nH]cn1)C(=O)N[C@@H](CCC(=O)O)C(=O)N[C@H](C(=O)NCC(=O)N[C@@H](Cc1c[nH]c2ccccc12)C(=O)N[C@@H](CCCCN)C(=O)N[C@@H](Cc1ccc(O)cc1)C(=O)O)C(C)C`, the IC50 amounted to 4630 nM against HLA-A*2301 and 3.8 nM at HLA-A*3002.

For LYNTEKGRHPF, the half-inhibitory concentration (IC50) against HLA-A*2301 is 1950 nM; on HLA-A*2902 (A*2902 binding affinity (IC50)), above 50000 nM; on HLA-A*3002 (A*3002 binding affinity (IC50)), above 30000 nM.

For the compound MYVGDGPGPGF, the results for the half-inhibitory concentration (IC50) against HLA-A*2301, at HLA-A*2902 (A*2902 binding affinity (IC50)) and on HLA-A*3002 (A*3002 binding affinity (IC50)) were 11 nM, 8660 nM and 39600 nM, respectively.

With MYVGPGPGSVF, the 50% inhibitory concentration (IC50) against HLA-A*2301 was found to be 4.4 nM; on HLA-A*3002 (A*3002 binding affinity (IC50)), 28200 nM.

For the compound KTKDIVNGL, the IC50 against HLA-A*2301 was above 49000 nM; on HLA-A*3002 (A*3002 binding affinity (IC50)) it was 164 nM.

For the compound `CC(C)C[C@H](NC(=O)[C@@H](N)CO)C(=O)N[C@@H](Cc1ccccc1)C(=O)N[C@H](C(=O)N[C@@H](CO)C(=O)N[C@@H](CC(N)=O)C(=O)N[C@@H](Cc1c[nH]cn1)C(=O)N[C@@H](C)C(=O)N[C@@H](Cc1ccc(O)cc1)C(=O)O)C(C)C`, the half-inhibitory concentration (IC50) at HLA-A*2301 worked out at 30300 nM; against HLA-A*3002, 1.1 nM.

Turning to AYSSWMYSY, the concentration for half-maximal inhibition (IC50) at HLA-A*2301 is 21 nM; at HLA-A*3002 (Binding affinity to A*3002 (expressed as an IC50)) it was 4.9 nM.

Regarding DFFLKSKFNI, it took 304 nM to reach half-maximal inhibition against HLA-A*2301 (IC50).

As to RYQDPQNYEL, on HLA-A*2301, the half-inhibitory concentration (IC50) is 124 nM. This IC50 is about 2.5-fold lower than that of the compound before.

As to TYLGPGPGLSF, the IC50 at HLA-A*2301 stood at 0.65 nM; at HLA-A*2902 (A*2902 binding affinity (IC50)), 600 nM; at HLA-A*3002 (A*3002 binding affinity (IC50)) it was 26900 nM.

On to MYGPGPGGSVF, for which the IC50 worked out at 5.4 nM against HLA-A*2301, 48400 nM at HLA-A*2902 (A*2902 binding affinity (IC50)) and 32000 nM at HLA-A*3002 (A*3002 binding affinity (IC50)).
